Measured values reported in ChEMBL document CHEMBL3132776, “Synthesis of amphiphilic, chalcogen-based redox modulators with in vitro cytotoxic activity against cancer cells, macrophages and microbes” (Medchemcomm, 2014).
Calls of active or inactive are those of the source. The calls are words filed in the database; no cut-off is given here.

Key:
[1] = tested on: RAW264.7; assay: Cytotoxicity against mouse RAW264.7 cells assessed as reduction in cell viability after 24 hrs by MTT assay; format: functional, cell-based; details: RAW264.7, 24 h
[2] = tested on: Erythrocyte; assay: Induction of membrane permeabilization assessed as hemolysis in RBC (unknown origin) at 100 microM by spectrophotometry based hemoglobin release assay; format: functional
[3] = tested on: HCT-116; assay: Cytotoxicity against human p53-positive HCT116 cells assessed as reduction in cell viability after 24 hrs by MTT assay; format: functional, cell-based; details: HCT-116, 24 h
[4] = tested on: Erythrocyte; assay: Induction of membrane permeabilization assessed as hemolysis in RBC (unknown origin) by spectrophotometry based hemoglobin release assay; format: functional, cell-based
[5] = Critical micelle concentration of the compound by KRUSS tensiometry; format: physicochemical
[6] = Cytotoxicity against human ARPE19 cells assessed as reduction in cell viability after 24 hrs by MTT assay; format: cell-based; details: ARPE-19, 24 h
[7] = tested on: Steinernema feltiae; assay: Nematicidal activity against Steinernema feltiae assessed as reduction in viability after 24 hrs; format: functional; details: read-out: LD50 (the source's name)
[8] = target: Hemoglobin HbA (Homo sapiens) (UniProt P69905+P68871); assay: Binding affinity to Hemoglobin (unknown origin) at 10 mM by circular dichroism spectroscopy
Chain of Hemoglobin HbA (Homo sapiens) (P68871 2-147 partner limits assumed): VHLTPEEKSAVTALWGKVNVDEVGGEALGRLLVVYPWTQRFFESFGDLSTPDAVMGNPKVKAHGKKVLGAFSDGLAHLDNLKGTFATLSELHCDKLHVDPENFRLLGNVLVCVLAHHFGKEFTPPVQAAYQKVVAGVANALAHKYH
Chain of Hemoglobin HbA (Homo sapiens) (P69905 2-142 limits assumed): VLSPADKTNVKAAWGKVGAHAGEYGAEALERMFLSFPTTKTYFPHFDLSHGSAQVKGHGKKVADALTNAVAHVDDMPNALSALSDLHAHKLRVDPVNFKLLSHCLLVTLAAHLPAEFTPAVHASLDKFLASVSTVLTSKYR

[9] = tested on: HCT-116; assay: Reduction in mitochondrial membrane potential in human p53-positive HCT116 cells by JC-1 dye based fluorescence assay; format: functional, cell-based
[10] = tested on: HCT-116; assay: Induction of superoxide anion radicals generation in human p53-positive HCT116 cells by DHE staining based fluorescence assay; format: functional, cell-based
[11] = tested on: Escherichia coli; assay: Antibacterial activity against Escherichia coli M17 VKPM-B8208 by agar plate assay; format: functional, organism-based
[12] = tested on: HCT-116; assay: Drug uptake in human p53-positive HCT116 cells after 48 hrs by energy-dispersive X-ray spectroscopy; format: ADME, cell-based; details: hct-116, 48 h
[13] = tested on: HCT-116; assay: Induction of superoxide anion radicals generation in human p53-positive HCT116 cells at 50 microM within 40 mins by DHE staining based fluorescence assay; format: functional, cell-based

Question: With O=S(=O)([O-])OCCCCCCCCC[Se]c1ccccc1.[Na+] as the molecule, how does the IC50 [1] read?
Answer: > 100 µM

Question: And the Activity [2]?
Answer: 2.73%

Question: What about the IC50 [3] of the same molecule?
Answer: > 100 µM

Question: What about the Activity [4] of the same molecule?
Answer: Dose-dependent effect

Question: What about the CMC [5] of the same molecule?
Answer: 2.5 mM

Question: For O=S(=O)([O-])OCCCCCCCCCC[Te]c1ccccc1.[Na+], which IC50 [1] is on record?
Answer: 5.32 µM

Question: What about the Activity [2] of the same molecule?
Answer: 45.35%

Question: What about the IC50 [6] of the same molecule?
Answer: 50 µM

Question: And the IC50 [3]?
Answer: 7.47 µM

Question: What about the Activity [4] of the same molecule?
Answer: Dose-dependent effect

Question: And the CMC [5]?
Answer: 0.9 mM

Question: Which results are given for O=S(=O)([O-])OCCCCCCCCCC[Se]c1ccccc1.[Na+]?
Answer: IC50 [1]: > 100 µM; Activity [2]: 7.94%; IC50 [3]: > 100 µM; Activity [4]: Dose-dependent effect; CMC [5]: 1.2 mM

Question: What does the source list for O=S(=O)([O-])OCCCCCCCCC[Te]c1ccccc1.[Na+]?
Answer: IC50 [1]: 4.67 µM; Activity [2]: 20.44%; IC50 [6]: 50 µM; IC50 [3]: 4.99 µM; Activity [4]: Dose-dependent effect; CMC [5]: 4.8 mM

Question: With O=S(=O)([O-])OCCCCCCCC[Se]c1ccccc1.[Na+] as the molecule, how does the LC50 [7] read?
Answer: 30 µM

Question: And the IC50 [1]?
Answer: > 100 µM

Question: And the Activity [2]?
Answer: 1.24%

Question: What about the Activity [8] of the same molecule?
Answer: Active

Question: What about the Activity [9] of the same molecule?
Answer: inactive

Question: And the IC50 [3]?
Answer: > 100 µM

Question: And the Activity [10]?
Answer: inactive

Question: What about the Activity [4] of the same molecule?
Answer: Dose-dependent effect

Question: What about the CMC [5] of the same molecule?
Answer: 2.6 mM

Question: What does the source list for O=S(=O)([O-])OCCCCCCCCCCC[Se]c1ccccc1.[Na+]?
Answer: IC50 [1]: > 100 µM; Activity [2]: 63.41%; IC50 [3]: > 100 µM; Activity [4]: Dose-dependent effect; CMC [5]: 1.1 mM

Question: What does the source list for O=S(=O)([O-])OCCCCCCCC[Te]c1ccccc1.[Na+]?
Answer: LC50 [7]: 78 µM; IC50 [1]: 3.95 µM; IC50 [11]: 550 µM; Drug uptake [12]: Active; Activity [2]: 3.09%; Activity [8]: Active; IC50 [6]: 50 µM; Activity [13]: Active; IC50 [3]: 5.99 µM; Activity [4]: Dose-dependent effect; CMC [5]: 5 mM

Question: With O=S(=O)([O-])OCCCCCCCCCCCC[Te]c1ccccc1.[Na+] as the molecule, how does the IC50 [1] read?
Answer: 4.96 µM

Question: What about the Activity [2] of the same molecule?
Answer: 67.61%

Question: What about the IC50 [6] of the same molecule?
Answer: 50 µM

Question: What about the IC50 [3] of the same molecule?
Answer: 19.8 µM

Question: What about the Activity [4] of the same molecule?
Answer: Dose-dependent effect

Question: What about the CMC [5] of the same molecule?
Answer: 0.3 mM

Question: For CCCCCCCCCCCCOS(=O)(=O)[O-].[Na+] [SODIUM LAURYL SULFATE], which LC50 [7] is on record?
Answer: > 400 µM

Question: What about the IC50 [1] of the same molecule?
Answer: > 100 µM

Question: What about the Activity [2] of the same molecule?
Answer: 9.51%

Question: What about the IC50 [3] of the same molecule?
Answer: > 100 µM

Question: What about the Activity [4] of the same molecule?
Answer: Dose-dependent effect

Question: What about the CMC [5] of the same molecule?
Answer: 0.9 mM

Question: For O=S(=O)([O-])OCCCCCCCCCCC[Te]c1ccccc1.[Na+], which IC50 [1] is on record?
Answer: 7.84 µM

Question: What about the Activity [2] of the same molecule?
Answer: 53.35%

Question: What about the IC50 [6] of the same molecule?
Answer: 50 µM

Question: And the IC50 [3]?
Answer: 9.73 µM

Question: What about the Activity [4] of the same molecule?
Answer: Dose-dependent effect

Question: And the CMC [5]?
Answer: 0.5 mM

Question: Which IC50 [1] does the source give for O=S(=O)([O-])OCCCCCCCCCCCC[Se]c1ccccc1.[Na+] here?
Answer: > 100 µM

Question: And the Activity [2]?
Answer: 66.8%

Question: What about the IC50 [3] of the same molecule?
Answer: > 100 µM

Question: And the Activity [4]?
Answer: Dose-dependent effect

Question: And the CMC [5]?
Answer: 0.7 mM
